Assay: xn = mol fraction of the nth substance listed
Details: 100 kPa, Liquid; for viscosity: Concentric cylinders viscometry; for mass density: Vibrating tube method

CCCCCCCO [heptan-1-ol] + CCCCOC(C)=O
Details	mass density [kg/m3]	viscosity [mPa·s]
293.15 K, x2 = 0	822.2	7.03
293.15 K, x2 = 0.0819	826.3	6.17
293.15 K, x2 = 0.1604	830.3	5.46
293.15 K, x2 = 0.2399	834.5	4.81
293.15 K, x2 = 0.3497	840.6	4.03
293.15 K, x2 = 0.4399	845.7	3.47
293.15 K, x2 = 0.5743	853.6	2.72
293.15 K, x2 = 0.6496	858.2	2.34
293.15 K, x2 = 0.7391	863.8	1.92
293.15 K, x2 = 0.8491	870.9	1.41
293.15 K, x2 = 0.9385	876.8	1.01
298.15 K, x2 = 0	818.7	5.92
298.15 K, x2 = 0.0819	822.6	5.17
298.15 K, x2 = 0.1604	826.4	4.56
298.15 K, x2 = 0.2399	830.5	3.99
298.15 K, x2 = 0.3497	836.3	3.33
298.15 K, x2 = 0.4399	841.3	2.86
298.15 K, x2 = 0.5743	849	2.25
298.15 K, x2 = 0.6496	853.5	1.95
298.15 K, x2 = 0.7391	859	1.61
298.15 K, x2 = 0.8491	865.9	1.22
298.15 K, x2 = 0.9385	871.8	0.9
303.15 K, x2 = 0	815.2	5.03
303.15 K, x2 = 0.0819	818.8	4.37
303.15 K, x2 = 0.1604	822.5	3.84
303.15 K, x2 = 0.2399	826.3	3.35
303.15 K, x2 = 0.3497	831.9	2.78
303.15 K, x2 = 0.4399	836.7	2.4
303.15 K, x2 = 0.5743	844.2	1.89
303.15 K, x2 = 0.6496	848.6	1.65
303.15 K, x2 = 0.7391	853.9	1.38
303.15 K, x2 = 0.8491	860.8	1.06
303.15 K, x2 = 0.9385	866.6	0.81
308.15 K, x2 = 0	811.6	4.3
308.15 K, x2 = 0.0819	815	3.73
308.15 K, x2 = 0.1604	818.4	3.26
308.15 K, x2 = 0.2399	822.1	2.84
308.15 K, x2 = 0.3497	827.4	2.36
308.15 K, x2 = 0.4399	832.1	2.03
308.15 K, x2 = 0.5743	839.3	1.61
308.15 K, x2 = 0.6496	843.6	1.41
308.15 K, x2 = 0.7391	848.9	1.19
308.15 K, x2 = 0.8491	855.7	0.94
308.15 K, x2 = 0.9385	861.4	0.73
313.15 K, x2 = 0	808	3.71
313.15 K, x2 = 0.0819	811	3.19
313.15 K, x2 = 0.1604	814.2	2.78
313.15 K, x2 = 0.2399	817.6	2.42
313.15 K, x2 = 0.3497	822.7	2.01
313.15 K, x2 = 0.4399	827.1	1.74
313.15 K, x2 = 0.5743	834.1	1.4
313.15 K, x2 = 0.6496	838.3	1.23
313.15 K, x2 = 0.7391	843.5	1.06
313.15 K, x2 = 0.8491	850.3	0.85
313.15 K, x2 = 0.9385	856	0.67
318.15 K, x2 = 0	804.4	3.21
318.15 K, x2 = 0.0819	807.2	2.75
318.15 K, x2 = 0.1604	810.1	2.4
318.15 K, x2 = 0.2399	813.3	2.08
318.15 K, x2 = 0.3497	818.1	1.73
318.15 K, x2 = 0.4399	822.3	1.49
318.15 K, x2 = 0.5743	829.2	1.22
318.15 K, x2 = 0.6496	833.3	1.09
318.15 K, x2 = 0.7391	838.4	0.94
318.15 K, x2 = 0.8491	845.1	0.77
318.15 K, x2 = 0.9385	850.9	0.62
323.15 K, x2 = 0	800.7	2.79
323.15 K, x2 = 0.0819	803.2	2.4
323.15 K, x2 = 0.1604	806	2.09
323.15 K, x2 = 0.2399	808.9	1.81
323.15 K, x2 = 0.3497	813.5	1.5
323.15 K, x2 = 0.4399	817.6	1.3
323.15 K, x2 = 0.5743	824.2	1.06
323.15 K, x2 = 0.6496	828.2	0.95
323.15 K, x2 = 0.7391	833.2	0.83
323.15 K, x2 = 0.8491	839.9	0.7
323.15 K, x2 = 0.9385	845.7	0.58

CCCCCCCCCO [nonan-1-ol] + CCCCOC(C)=O
Details	mass density [kg/m3]	viscosity [mPa·s]
293.15 K, x2 = 0	827.5	11.41
293.15 K, x2 = 0.0812	830.4	10.09
293.15 K, x2 = 0.1601	833.4	8.95
293.15 K, x2 = 0.2399	836.7	7.89
293.15 K, x2 = 0.3499	841.6	6.6
293.15 K, x2 = 0.4399	845.9	5.65
293.15 K, x2 = 0.5599	852.2	4.46
293.15 K, x2 = 0.6501	857.3	3.65
293.15 K, x2 = 0.7399	862.7	2.89
293.15 K, x2 = 0.8499	870	1.97
293.15 K, x2 = 0.9452	876.8	1.18
298.15 K, x2 = 0	824	9.43
298.15 K, x2 = 0.0812	826.7	8.31
298.15 K, x2 = 0.1601	829.6	7.35
298.15 K, x2 = 0.2399	832.8	6.49
298.15 K, x2 = 0.3499	837.4	5.4
298.15 K, x2 = 0.4399	841.6	4.62
298.15 K, x2 = 0.5599	847.7	3.64
298.15 K, x2 = 0.6501	852.7	2.99
298.15 K, x2 = 0.7399	858	2.37
298.15 K, x2 = 0.8499	865.1	1.65
298.15 K, x2 = 0.9452	871.8	1.03
303.15 K, x2 = 0	820.5	7.86
303.15 K, x2 = 0.0812	822.9	6.89
303.15 K, x2 = 0.1601	825.7	6.07
303.15 K, x2 = 0.2399	828.7	5.33
303.15 K, x2 = 0.3499	833.1	4.43
303.15 K, x2 = 0.4399	837.2	3.79
303.15 K, x2 = 0.5599	843.1	3
303.15 K, x2 = 0.6501	847.9	2.46
303.15 K, x2 = 0.7399	853	1.97
303.15 K, x2 = 0.8499	860	1.4
303.15 K, x2 = 0.9452	866.5	0.91
308.15 K, x2 = 0	817.1	6.61
308.15 K, x2 = 0.0812	819.4	5.78
308.15 K, x2 = 0.1601	821.9	5.08
308.15 K, x2 = 0.2399	824.7	4.44
308.15 K, x2 = 0.3499	828.9	3.68
308.15 K, x2 = 0.4399	832.8	3.14
308.15 K, x2 = 0.5599	838.4	2.49
308.15 K, x2 = 0.6501	843.1	2.07
308.15 K, x2 = 0.7399	848.1	1.67
308.15 K, x2 = 0.8499	854.9	1.21
308.15 K, x2 = 0.9452	861.4	0.81
313.15 K, x2 = 0	813.6	5.59
313.15 K, x2 = 0.0812	815.5	4.87
313.15 K, x2 = 0.1601	817.7	4.26
313.15 K, x2 = 0.2399	820.2	3.72
313.15 K, x2 = 0.3499	824.2	3.08
313.15 K, x2 = 0.4399	827.8	2.63
313.15 K, x2 = 0.5599	833.2	2.11
313.15 K, x2 = 0.6501	837.8	1.77
313.15 K, x2 = 0.7399	842.8	1.45
313.15 K, x2 = 0.8499	849.5	1.07
313.15 K, x2 = 0.9452	856	0.74
318.15 K, x2 = 0	810.1	4.78
318.15 K, x2 = 0.0812	811.8	4.15
318.15 K, x2 = 0.1601	813.8	3.62
318.15 K, x2 = 0.2399	816.1	3.16
318.15 K, x2 = 0.3499	819.7	2.61
318.15 K, x2 = 0.4399	823	2.24
318.15 K, x2 = 0.5599	828.3	1.8
318.15 K, x2 = 0.6501	832.7	1.5
318.15 K, x2 = 0.7399	837.5	1.24
318.15 K, x2 = 0.8499	844.3	0.93
318.15 K, x2 = 0.9452	850.8	0.67
323.15 K, x2 = 0	806.5	4.1
323.15 K, x2 = 0.0812	807.9	3.56
323.15 K, x2 = 0.1601	809.7	3.11
323.15 K, x2 = 0.2399	811.8	2.71
323.15 K, x2 = 0.3499	815.2	2.24
323.15 K, x2 = 0.4399	818.4	1.91
323.15 K, x2 = 0.5599	823.5	1.54
323.15 K, x2 = 0.6501	827.8	1.29
323.15 K, x2 = 0.7399	832.6	1.08
323.15 K, x2 = 0.8499	839.1	0.83
323.15 K, x2 = 0.9452	845.6	0.61

— the NIST ThermoML archive (doi:10.1021/acs.jced.8b00524)
